Experimental data from patent publication US8258114B2, “Modulation of glucose-6-phosphatase translocase expression” (Isis Pharmaceuticals, Inc., priority 2004, dated 2012).
Oligonucleotides are written 5' to 3', each unit as a sugar letter and its base; * is a phosphorothioate linkage, no mark a phosphodiester; rarer units and linkages stand in square brackets, end groups in braces. Plain capitals give the bases only. e = 2'-O-(2-methoxyethyl) (MOE); [5mC] = 5-methylcytosine; d = 2'-deoxy (DNA)

System: mouse glucose-6-phosphatase translocase mRNA
Assay: Antisense inhibition of mouse glucose-6-phosphatase translocase mRNA in primary mouse hepatocytes, 50 nM (Table 5)
Format: cell-based
Conditions: 50 nM oligonucleotide, mRNA by real-time PCR, normalized with RIBOGREEN
Protocol: Primary mouse hepatocytes were prepared from CD-1 mice purchased from Charles River Labs. Primary mouse hepatocytes were routinely cultured in Hepatocyte Attachment Media supplemented with 10% fetal bovine serum (Invitrogen Life Technologies, Carlsbad, Calif.), 250 nM dexamethasone, and 10 nM bovine insulin (Sigma-Aldrich, St. Louis, Mo.). Cells were seeded into 96-well plates (Falcon-Primaria #353872, BD Biosciences, Bedford, Mass.) at a density of approximately 4,000-6,000 cells/well for use in oligomeric compound transfection experiments.
Quantitation of glucose 6-phosphatase translocase mRNA levels was accomplished by real-time quantitative PCR using the ABI PRISM™ 7600, 7700, or 7900 Sequence Detection System (PE-Applied Biosystems, Foster City, Calif.) according to manufacturer's instructions.
Prior to quantitative PCR analysis, primer-probe sets specific to the target gene being measured were evaluated for their ability to be “multiplexed” with a GAPDH amplification reaction. After isolation the RNA is subjected to sequential reverse transcriptase (RT) reaction and real-time PCR, both of which are performed in the same well. RT and PCR reagents were obtained from Invitrogen Life Technologies (Carlsbad, Calif.). […] The RT reaction was carried out by incubation for 30 minutes at 48° C. Following a 10 minute incubation at 95° C. to activate the PLATINUM® Taq, 40 cycles of a two-step PCR protocol were carried out: 95° C. for 15 seconds (denaturation) followed by 60° C. for 1.5 minutes (annealing/extension).
Gene target quantities obtained by RT, real-time PCR were normalized using either the expression level of GAPDH, a gene whose expression is constant, or by quantifying total RNA using RiboGreen™ (Molecular Probes, Inc. Eugene, Oreg.). GAPDH expression was quantified by RT, real-time PCR, by being run simultaneously with the target, multiplexing, or separately. Total RNA was quantified using RiboGreen™ RNA quantification reagent (Molecular Probes, Inc. Eugene, Oreg.).
A series of oligomeric compounds was designed to target different regions of mouse glucose-6-phosphatase translocase, using published sequences cited in Table 1. All compounds in Table 5 are chimeric oligonucleotides (“gapmers”) 20 nucleotides in length, composed of a central “gap” region consisting of 10 2′-deoxynucleotides, which is flanked on both sides (5′ and 3′) by five-nucleotide “wings”. The wings are composed of 2′-O-(2-methoxyethyl) nucleotides, also known as 2′-MOE nucleotides. The internucleoside (backbone) linkages are phosphorothioate throughout the oligonucleotide. All cytidine residues are 5-methylcytidines. The compounds were analyzed for their effect on gene target mRNA levels by quantitative real-time PCR as described in other examples herein, using the following primer-probe set designed to hybridize to mouse glucose-6-phosphatase translocase: • forward primer: […] (SEQ ID NO: 66) • reverse primer: CCATCCCAGCCATCATGAG (SEQ ID NO: 67) and the PCR probe was: FAM-[…]-TAMRA (SEQ ID NO: 68) where FAM is the fluorescent reporter dye and TAMRA is the quencher dye. Mouse target gene quantities were normalized by quantifying total RNA using RIBOGREEN™.
Data are from experiments in which primary mouse hepatocytes were treated with 50 nM of the antisense oligonucleotides of the present invention. A reduction in expression is expressed as percent inhibition in Table 5. If present, “N.D.” indicates “not determined”. The target regions to which these oligomeric compounds are inhibitory are herein referred to as “validated target segments.”

Row | Sequence | % Inhib [%]
1 | GGCACTGATGTAGGAGCTAC (eG*eG*e[5mC]*eA*e[5mC]*dT*dG*dA*dT*dG*dT*dA*dG*dG*dA*eG*e[5mC]*eT*eA*e[5mC]; antisense) [ISIS 148966] | 54
2 | CGTCATCATTTTAAATAGAG (e[5mC]*eG*eT*e[5mC]*eA*dT*d[5mC]*dA*dT*dT*dT*dT*dA*dA*dA*eT*eA*eG*eA*eG; antisense) [ISIS 148994] | 10
3 | AATGCTTCCTACAAGGCCTC (eA*eA*eT*eG*e[5mC]*dT*dT*d[5mC]*d[5mC]*dT*dA*d[5mC]*dA*dA*dG*eG*e[5mC]*e[5mC]*eT*e[5mC]; antisense) [ISIS 148968] | 26
4 | ATAGGCCGTGGCGAGGGTTC (eA*eT*eA*eG*eG*d[5mC]*d[5mC]*dG*dT*dG*dG*d[5mC]*dG*dA*dG*eG*eG*eT*eT*e[5mC]; antisense) [ISIS 148972] | 36
5 | TGTGCTCCAGCTATAGTGCT (eT*eG*eT*eG*e[5mC]*dT*d[5mC]*d[5mC]*dA*dG*d[5mC]*dT*dA*dT*dA*eG*eT*eG*e[5mC]*eT; antisense) [ISIS 148981] | 59
6 | AGACCACAAGGTAGCCAGTG (eA*eG*eA*e[5mC]*e[5mC]*dA*d[5mC]*dA*dA*dG*dG*dT*dA*dG*d[5mC]*e[5mC]*eA*eG*eT*eG; antisense) [ISIS 148961] | 36
7 | CACAGACTCTTGACTGCTCC (e[5mC]*eA*e[5mC]*eA*eG*dA*d[5mC]*dT*d[5mC]*dT*dT*dG*dA*d[5mC]*dT*eG*e[5mC]*eT*e[5mC]*e[5mC]; antisense) [ISIS 148939] | 41
8 | GAAGGGTATAGGAGACACCC (eG*eA*eA*eG*eG*dG*dT*dA*dT*dA*dG*dG*dA*dG*dA*e[5mC]*eA*e[5mC]*e[5mC]*e[5mC]; antisense) [ISIS 148997] | 57
9 | GAGGTTCCACACAAGTTGGG (eG*eA*eG*eG*eT*dT*d[5mC]*d[5mC]*dA*d[5mC]*dA*d[5mC]*dA*dA*dG*eT*eT*eG*eG*eG; antisense) [ISIS 148978] | 34
10 | GACTGCTCCTGCTTGCAGCT (eG*eA*e[5mC]*eT*eG*d[5mC]*dT*d[5mC]*d[5mC]*dT*dG*d[5mC]*dT*dT*dG*e[5mC]*eA*eG*e[5mC]*eT; antisense) [ISIS 148938] | 50
11 | GCTTTATTCGATCTATACAA (eG*e[5mC]*eT*eT*eT*dA*dT*dT*d[5mC]*dG*dA*dT*d[5mC]*dT*dA*eT*eA*e[5mC]*eA*eA; antisense) [ISIS 149009] | 5
12 | TCATGAGAGTGGTGGACTCC (eT*e[5mC]*eA*eT*eG*dA*dG*dA*dG*dT*dG*dG*dT*dG*dG*eA*e[5mC]*eT*e[5mC]*e[5mC]; antisense) [ISIS 149005] | 27
13 | ATGGAGTCTAGAACCAAACG (eA*eT*eG*eG*eA*dG*dT*d[5mC]*dT*dA*dG*dA*dA*d[5mC]*d[5mC]*eA*eA*eA*e[5mC]*eG; antisense) [ISIS 148995] | 56
14 | CTTGTCCAGAGCGATCTCAT (e[5mC]*eT*eT*eG*eT*d[5mC]*d[5mC]*dA*dG*dA*dG*d[5mC]*dG*dA*dT*e[5mC]*eT*e[5mC]*eA*eT; antisense) [ISIS 148945] | 35
15 | CCAAACTGGGATGGCTCAAA (e[5mC]*e[5mC]*eA*eA*eA*d[5mC]*dT*dG*dG*dG*dA*dT*dG*dG*d[5mC]*eT*e[5mC]*eA*eA*eA; antisense) [ISIS 148954] | 48
16 | GCCGCAAATATGACAGTGCG (eG*e[5mC]*e[5mC]*eG*e[5mC]*dA*dA*dA*dT*dA*dT*dG*dA*d[5mC]*dA*eG*eT*eG*e[5mC]*eG; antisense) [ISIS 148942] | 17
17 | AGCCATCATGAGTAGCAATA (eA*eG*e[5mC]*e[5mC]*eA*dT*d[5mC]*dA*dT*dG*dA*dG*dT*dA*dG*e[5mC]*eA*eA*eT*eA; antisense) [ISIS 148973] | 35

Row | Sequence | % Inhib [%]
18 | TCTCTTTAGTGCCTGGATCT (eT*e[5mC]*eT*e[5mC]*eT*dT*dT*dA*dG*dT*dG*d[5mC]*d[5mC]*dT*dG*eG*eA*eT*e[5mC]*eT; antisense) [ISIS 148937] | 52
19 | GGATATTTCGAAGCAAGAAG (eG*eG*eA*eT*eA*dT*dT*dT*d[5mC]*dG*dA*dA*dG*d[5mC]*dA*eA*eG*eA*eA*eG; antisense) [ISIS 148983] | 43
20 | AAGGCCTCCGACCTCGAGGG (eA*eA*eG*eG*e[5mC]*d[5mC]*dT*d[5mC]*d[5mC]*dG*dA*d[5mC]*d[5mC]*dT*d[5mC]*eG*eA*eG*eG*eG; antisense) [ISIS 148967] | 34
21 | TACTCGGAAGAGATACGTGG (eT*eA*e[5mC]*eT*e[5mC]*dG*dG*dA*dA*dG*dA*dG*dA*dT*dA*e[5mC]*eG*eT*eG*eG; antisense) [ISIS 148974] | 8
22 | GCTCACAAACTTGCTGATGG (eG*e[5mC]*eT*e[5mC]*eA*d[5mC]*dA*dA*dA*d[5mC]*dT*dT*dG*d[5mC]*dT*eG*eA*eT*eG*eG; antisense) [ISIS 148951] | 57
23 | ACAGGGCCAGTGTGCTGCGC (eA*e[5mC]*eA*eG*eG*dG*d[5mC]*d[5mC]*dA*dG*dT*dG*dT*dG*d[5mC]*eT*eG*e[5mC]*eG*e[5mC]; antisense) [ISIS 148958] | 50
24 | CAGAGCGATCTCATCCACCA (e[5mC]*eA*eG*eA*eG*d[5mC]*dG*dA*dT*d[5mC]*dT*d[5mC]*dA*dT*d[5mC]*e[5mC]*eA*e[5mC]*e[5mC]*eA; antisense) [ISIS 148944] | 35
25 | TCACTCTCCCTTCTTGGATA (eT*e[5mC]*eA*e[5mC]*eT*d[5mC]*dT*d[5mC]*d[5mC]*d[5mC]*dT*dT*d[5mC]*dT*dT*eG*eG*eA*eT*eA; antisense) [ISIS 148984] | 60
26 | ATCTTGGGTGAGTCACTGGT (eA*eT*e[5mC]*eT*eT*dG*dG*dG*dT*dG*dA*dG*dT*d[5mC]*dA*e[5mC]*eT*eG*eG*eT; antisense) [ISIS 148975] | 42
27 | GCCCCAGTCTGTACAGCAAG (eG*e[5mC]*e[5mC]*e[5mC]*e[5mC]*dA*dG*dT*d[5mC]*dT*dG*dT*dA*d[5mC]*dA*eG*e[5mC]*eA*eA*eG; antisense) [ISIS 148963] | 55
28 | GTGGAGACACAGAAACGTAA (eG*eT*eG*eG*eA*dG*dA*d[5mC]*dA*d[5mC]*dA*dG*dA*dA*dA*e[5mC]*eG*eT*eA*eA; antisense) [ISIS 148992] | 51
29 | CCATTAAGAAACCAAGGAGC (e[5mC]*e[5mC]*eA*eT*eT*dA*dA*dG*dA*dA*dA*d[5mC]*d[5mC]*dA*dA*eG*eG*eA*eG*e[5mC]; antisense) [ISIS 148952] | 20
30 | TATAGGAGACACCCTGAATT (eT*eA*eT*eA*eG*dG*dA*dG*dA*d[5mC]*dA*d[5mC]*d[5mC]*d[5mC]*dT*eG*eA*eA*eT*eT; antisense) [ISIS 148996] | −3
31 | ACAAAGGAGAAGGTTTTGCG (eA*e[5mC]*eA*eA*eA*dG*dG*dA*dG*dA*dA*dG*dG*dT*dT*eT*eT*eG*e[5mC]*eG; antisense) [ISIS 148943] | 47
32 | GCAGCCGCTCTCCTTTCCGT (eG*e[5mC]*eA*eG*e[5mC]*d[5mC]*dG*d[5mC]*dT*d[5mC]*dT*d[5mC]*d[5mC]*dT*dT*eT*e[5mC]*e[5mC]*eG*eT; antisense) [ISIS 148988] | 73
33 | TACAGCAAGTCTTTACTCCG (eT*eA*e[5mC]*eA*eG*d[5mC]*dA*dA*dG*dT*d[5mC]*dT*dT*dT*dA*e[5mC]*eT*e[5mC]*e[5mC]*eG; antisense) [ISIS 148962] | 47
34 | ACAGAGACAGCCCTGCCTTC (eA*e[5mC]*eA*eG*eA*dG*dA*d[5mC]*dA*dG*d[5mC]*d[5mC]*d[5mC]*dT*dG*e[5mC]*e[5mC]*eT*eT*e[5mC]; antisense) [ISIS 148970] | 78
